Structures can show the parent of a compound that is named as a salt.
Assay: in vitro
Conditions: rat, gh3-tre-luc cells, AC50 (uM) modified / 1000

SMILES | CC50 at 24 h
CCCCCCCCCCCCCCCCN(C)C [Dimethylcetylamine] | > 5 µM
O=S(=O)(O)c1ccc(Cl)cc1 [4-Chlorobenzenesulfonic acid] | > 90 µM
c1ccc2c(c1)ccc1ccccc12 [Phenanthrene] | > 90 µM
O=[N+]([O-])c1ccc(/C=N\O)o1 [Nifuroxime] | > 50 µM
COc1cccc(N)c1 [3-Methoxyaniline] | > 90 µM
O=S(=O)(O)c1cc(O)c(O)c(S(=O)(=O)O)c1 [Tiron] | > 90 µM
C=CCSSSCC=C [Diallyl trisulfide] | > 50 µM
NNc1ccc(C(=O)O)cc1 [4-Hydrazinobenzoic acid] | > 90 µM
Oc1ccc(Cl)cc1C1CCCC1 [4-Chloro-2-cyclopentylphenol] | 55.3 µM
O=C(/C=C/c1ccccc1)OCc1ccccc1 [Benzyl cinnamate] | > 90 µM
COC[C@@H](c1ccc(C(F)(F)F)cc1)N1CCN(C2(C)CCN(C(=O)c3c(C)ncnc3C)CC2)C[C@@H]1C [Vicriviroc maleate] | > 50 µM
O=C1CC[C@@H](C(=O)N[C@H]2C[C@@H]2c2ccccc2)N1 [Rolicyprine] | > 50 µM
O=C(c1ccccc1)c1cccc(O)c1 [3-Hydroxybenzophenone] | > 90 µM
Nc1ccc(C=Cc2ccc(N)cc2S(=O)(=O)O)c(S(=O)(=O)O)c1 [4,4'-Diamino-2,2'-stilbenedisulfonic acid] | > 50 µM
CSc1ccc(Cl)cc1 [4-Chlorophenyl methyl sulfide] | > 90 µM
CC(C)NCC(O)c1ccc(NS(C)(=O)=O)cc1 (stereo not shown) [Sotalol hydrochloride] | > 90 µM
CCCN(CCC)C(=O)C(CCC(=O)O)NC(=O)c1ccccc1 (stereo not shown) [Proglumide] | > 50 µM
O=C(NC(=O)c1c(F)cccc1F)Nc1ccc(Cl)cc1 [Diflubenzuron] | > 90 µM
CC(C)Cn1cnc2c(N)nc3ccccc3c21 [Imiquimod] | > 50 µM
OCCN1CCN(CCO)CC1 [1,4-Piperazinediethanol] | > 90 µM
C=CC(=O)OCCOCCOC(=O)C=C [Diethylene glycol diacrylate] | 21.6 µM
C=COC(C)=O [Vinyl acetate] | > 90 µM

SMILES | CC50 at 24 h
C1N2CN3CN1CN(C2)C3 [Methenamine] | > 50 µM
CC[C@H](C)C(=O)O[C@H]1C[C@H](O)C=C2C=C[C@H](C)[C@H](CC[C@@H](O)C[C@@H](O)CC(=O)O)[C@H]21 [Pravastatin sodium] | > 90 µM
CN1CCc2cc(Cl)c(O)cc2[C@H]2c3ccccc3CC[C@@H]21 [ecopipam] | 17.4 µM
CCOC(=O)COC(=O)c1ccccc1C(=O)OCC [Ethyl phthalyl ethyl glycolate] | > 90 µM
CN1CCN(C2=Nc3ccccc3Oc3ccc(Cl)cc32)CC1 [Loxapine succinate] | 7.25 µM
O=S(=O)(O)c1ccc2cc(O)ccc2c1 [Potassium 6-hydroxynaphthalene-2-sulfonate] | > 90 µM
CCCCOC(=O)CC(CC(=O)OCCCC)(OC(C)=O)C(=O)OCCCC [Acetyl tributyl citrate] | > 90 µM
C=C(C)C(=O)OCCCCCCCCCCCC [Dodecyl 2-methylacrylate] | > 90 µM
CCCCCCC/C=C/C=O [(2E)-2-Decenal] | > 90 µM
Cc1ccc2c(c1)OCC(=O)CO2 [7-Methyl-2H-1,5-benzodioxepin-3(4H)-one] | > 90 µM
Cc1ccc(CO)cc1 [4-Methylbenzyl alcohol] | > 90 µM
CC(C)NNC(=O)c1ccncc1 [Iproniazid sulfate] | > 50 µM
O=c1oc2cc(O)ccc2c2oc3cc(O)ccc3c12 [Coumestrol] | > 90 µM
CON(C)C(=O)Nc1ccc(Cl)c(Cl)c1 [Linuron] | > 90 µM
CO[C@H]1/C=C/O[C@@]2(C)Oc3c(C)c(O)c4c(O)c(cc(O)c4c3C2=O)NC(=O)/C(C)=C\C=C\[C@H](C)[C@H](O)[C@@H](C)[C@@H](O)[C@@H](C)[C@H](OC(C)=O)[C@@H]1C [Rifamycin SV sodium salt] | 50.2 µM
O=C(Cl)c1cc(Cl)cc(Cl)c1 [3,5-Dichlorobenzoyl chloride] | > 90 µM
CN(C)C(=O)Nc1cccc(C(F)(F)F)c1 [Fluometuron] | > 90 µM
O=C(O)c1cc(Br)c(O)c(Br)c1 [3,5-Dibromo-4-hydroxybenzoic acid] | > 90 µM
CCCCCCCCCCCCCCOS(=O)(=O)O [Sodium myristyl sulfate] | 32 µM
CCC(=O)O[C@H]1[C@H](O[C@@H]2[C@@H](C)[C@H](O[C@H]3C[C@@](C)(OC)[C@@H](O)[C@H](C)O3)[C@@H](C)C(=O)O[C@H](CC)[C@@](C)(O)[C@H](O)[C@@H](C)C(=O)[C@H](C)C[C@@]2(C)O)O[C@H](C)C[C@@H]1N(C)C [Erythromycin propionate] | 13.1 µM
CC(C)CCOC(=O)/C=C/c1ccccc1 [3-Methylbutyl cinnamate] | > 90 µM
CCCCCCc1ccc(-c2ccc(C#N)cc2)cc1 [4-Hexyl-4'-cyanobiphenyl] | > 90 µM

SMILES | CC50 at 24 h
c1ccc2c(c1)ccc1c3ccccc3ccc21 [Chrysene] | > 40 µM
CCn1cc(C(=O)O)c(=O)c2cnc(N3CCNCC3)nc21 [Pipemidic acid] | > 20 µM
C[C@H](N)[C@H](O)c1cccc(O)c1 [Metaraminol bitartrate] | > 20 µM
CS(=O)(=O)NC(=O)c1cc(Oc2ccc(C(F)(F)F)cc2Cl)ccc1[N+](=O)[O-] [Fomesafen] | > 90 µM
NC(=O)NNC(N)=O [Biurea] | > 90 µM
CN(C)C(=O)Nc1ccc(Cl)c(Cl)c1 [Diuron] | > 90 µM
Cc1cccc([N+](=O)[O-])c1C(=O)O [2-Methyl-6-nitrobenzoic acid] | > 90 µM
O=S(=O)(O)c1ccc(O)c2ncccc12 [8-Hydroxyquinoline-5-sulfonic acid hydrate (1:x)] | > 90 µM
Oc1cc(Cl)cc(Cl)c1Cl [2,3,5-Trichlorophenol] | > 90 µM
O=C1OC(=O)c2cc([N+](=O)[O-])ccc21 [4-Nitrophthalic anhydride] | > 90 µM
CC12CCC(C[N+](C)(CCC[N+](C)(C)C)C1)C2(C)C (stereo not shown) [Trimethidinium methyl sulfate] | > 50 µM
Cc1ccco1 [2-Methylfuran] | > 90 µM
Nc1ccc(Oc2ccc(N)c(N)c2)cc1 [3,4,4'-Triaminodiphenyl ether] | 75.2 µM
CO[C@H]1C[C@H](O[C@H]2[C@H](C)[C@@H](O[C@@H]3O[C@H](C)C[C@H](N(C)C)[C@H]3O)[C@@H](C)C[C@@]3(CO3)C(=O)[C@H](C)[C@@H](O)[C@@H](C)[C@@H](C)OC(=O)[C@@H]2C)O[C@@H](C)[C@@H]1O [Oleandomycin phosphate] | > 20 µM
C[C@]12CCC(=O)C=C1CC[C@H]1[C@@H]3CC[C@](O)(C(=O)CO)[C@@]3(C)C[C@H](O)[C@@]12F [Fludrocortisone] | > 50 µM
CC(=O)NC(Cc1ccccc1)C(=O)O (stereo not shown) [Afalanine] | > 50 µM
CC(=N)S [Thioacetamide] | > 90 µM
CCCN(CC)C(CC)C(=O)Nc1c(C)cccc1C (stereo not shown) [Etidocaine] | > 50 µM
CC(C)(C)c1csc(-c2cc3cc(OCc4ccccc4CC(=O)O)ccc3o2)n1 [FR150011] | 79.7 µM
CCCCCCCCCCCCCCCC(=O)O[C@@H]1CC(C)=C(/C=C/C(C)=C/C=C/C(C)=C/C=C/C=C(C)/C=C/C=C(C)/C=C/C2=C(C)C[C@@H](OC(=O)CCCCCCCCCCCCCCC)CC2(C)C)C(C)(C)C1 [Physalien] | > 50 µM
COc1ccc(N)c(OC)c1 [2,4-Dimethoxyaniline hydrochloride] | > 50 µM
COc1ccc(O)c(C(C)(C)C)c1 [Butylated hydroxyanisole] | > 90 µM

Same assay, conditions: rat, gh3-tre-luc cells, AC50 (uM) modified / 1000, Tox21_110001=Tox21_112065; viability, 1 nM T3 present, 24 h

SMILES | CC50 at 24 h
CO[C@@H]1[C@H](O)C[C@@H](O[C@@H]2C[C@H](Oc3cc4cc5c(c(O)c4c(O)c3C)C(=O)[C@@H](O[C@H]3C[C@@H](O[C@H]4C[C@@H](O[C@H]6C[C@](C)(O)[C@@H](OC(C)=O)[C@H](C)O6)[C@H](O)[C@@H](C)O4)[C@H](O)[C@@H](C)O3)[C@H]([C@H](OC)C(=O)[C@@H](O)[C@@H](C)O)C5)O[C@H](C)[C@@H]2OC(C)=O)O[C@@H]1C [Chromomycin A3] | 0.366 µM

Same assay, conditions: rat, gh3-tre-luc cells, AC50 (uM) modified / 1000, Tox21_110001=Tox21_112842; viability, 1 nM T3 present, 24 h

SMILES | CC50 at 24 h
COc1cc(CC(C)N)cc2c1OCO2 (stereo not shown) [1-(7-Methoxy-1,3-benzodioxol-5-yl)propan-2-amine hydrochloride] | > 100 µM

Same assay, conditions: rat, gh3-tre-luc cells, AC50 (uM) modified / 1000, Tox21_110001=Tox21_113077; viability, 1 nM T3 present, 24 h

SMILES | CC50 at 24 h
CNC(C)CC1CCCCC1 (racemic) [(+/-) Propylhexedrine] | > 50 µM

Same assay, conditions: rat, gh3-tre-luc cells, AC50 (uM) modified / 1000, Tox21_110001=Tox21_201178; viability, 1 nM T3 present, 24 h

SMILES | CC50 at 24 h
CC(Cl)(Cl)[N+](=O)[O-] [1,1-Dichloro-1-nitroethane] | > 90 µM

Same assay, conditions: rat, gh3-tre-luc cells, AC50 (uM) modified / 1000, Tox21_110001=Tox21_201256; viability, 1 nM T3 present, 24 h

SMILES | CC50 at 24 h
Cc1ccccc1N [2-Methylaniline] | > 90 µM

Same assay, conditions: rat, gh3-tre-luc cells, AC50 (uM) modified / 1000, Tox21_110001=Tox21_202449; viability, 1 nM T3 present, 24 h

SMILES | CC50 at 24 h
Clc1nc(Cl)nc(Cl)n1 [2,4,6-Trichloro-s-triazine] | > 90 µM

Same assay, conditions: rat, gh3-tre-luc cells, AC50 (uM) modified / 1000, Tox21_110001=Tox21_202917; viability, 1 nM T3 present, 24 h

SMILES | CC50 at 24 h
C1CS1 [Ethylene sulfide] | > 90 µM

Same assay, conditions: rat, gh3-tre-luc cells, AC50 (uM) modified / 1000, Tox21_110001=Tox21_301424; viability, 1 nM T3 present, 24 h

SMILES | CC50 at 24 h
CNC(=O)Oc1cc(C)cc(C(C)C)c1 [Promecarb] | > 90 µM

Same assay, conditions: rat, gh3-tre-luc cells, AC50 (uM) modified / 1000, Tox21_110001=Tox21_301477; viability, 1 nM T3 present, 24 h

SMILES | CC50 at 24 h
N#Cc1ccc(Cl)cc1 [4-Chlorobenzonitrile] | > 90 µM

Same assay, conditions: rat, gh3-tre-luc cells, AC50 (uM) modified / 1000, Tox21_110001=Tox21_302279; viability, 1 nM T3 present, 24 h

SMILES | CC50 at 24 h
O=C(O)c1ccccc1C(=O)Nc1cccc2ccccc12 [Naptalam] | > 90 µM
